These results are taken from US7220764B2, “Sphingosine kinase inhibitors” (The Pennsylvania State University Research Foundation, priority 2002, dated 2007).

The target in data set [1] is T1, recombinant human SK (Homo sapiens, UniProt Q9NYA1).
T1 construct: glutathione-S-transferase (GST); made in house; host or cells: bacteria (PGEX bacterial expression vector, Pharmacia)
Briefly: Sphingosine kinase screen / inhibition of recombinant human SK ([3H]sphingosine to [3H]S1P). Type of data set: biochemical. The conditions noted are these: for inhibition at 5 µg/mL: read-out: inhibited SK activity by %; for IC50: mean ± SD of triplicate experiments, read-out: SK, concentration required to inhibit enzyme activity by 50%. Here is the method: This method involved incubating [^3H]sphingosine with 1 mM ATP under conditions defined in the reference, followed by extraction of the assay mixture with chloroform:methanol (2:1) under basic conditions. […] Radioactivity in aliquots of the aqueous phase was then quantified as a measure of [^3H]S1P formation.
Varying concentrations of the indicated compounds were evaluated for inhibition of recombinant human SK as described above.

Data set [2] concerns the target ERK2 (Homo sapiens, UniProt P28482). Briefly: Kinase selectivity panel: ERK2. Type of data set: biochemical. The settings on record: for IC50: human isoform, mean ± SD of triplicate experiments, read-out: ERK2, concentration required to inhibit enzyme activity by 50%. Here is the method:
(§1) Thus potencies of each inhibitor were determined for human isoforms of ERK2, PI3K and PKCα. SK inhibition data is provided for comparison. Data represent the concentrations required to inhibit enzyme activity by 50%, and are the mean ±SD of triplicate experiments. Results designated as “None” indicate that no inhibition was detected at concentrations up to 60 μM.

The test system of data set [3] is T2, PI3K.
T2 construct: other: human isoform; mean ± SD of triplicate experimen; activity toward PI3K (in words)
The experiment in a line: Kinase selectivity panel: PI3K (lipid kinase). The settings on record: for IC50: human isoform, mean ± SD of triplicate experiments, read-out: PI3K, concentration required to inhibit enzyme activity by 50%. Type of data set: biochemical, human. The method, then: Thus potencies of each inhibitor were determined for human isoforms of ERK2, PI3K and PKCα. […] Data represent the concentrations required to inhibit enzyme activity by 50%, and are the mean ±SD of triplicate experiments. Results designated as “None” indicate that no inhibition was detected at concentrations up to 60 μM.

The target in data set [4] is PKCα (Homo sapiens, UniProt P17252). The experiment in a line: Kinase selectivity panel: PKCα. Type of data set: biochemical. The settings on record: for IC50: human isoform, mean ± SD of triplicate experiments, read-out: PKCα, concentration required to inhibit enzyme activity by 50%. The method, then:
as §1

Data set [5] has as its system T-24 human bladder carcinoma cells. The experiment in a line: Cytotoxicity, SRB binding assay, T24. The format is cell-based. The conditions noted are these: 48 h treatment, mean ± SD. Here is the method:
(§2) The SK inhibitor compounds of the invention are antiproliferative and induce apoptosis in replicating cells. In order to assess the compounds' efficacy in intact cells, the compounds were evaluated for cytotoxicity using a panel of human cancer cell lines. These experiments followed methods that have been extensively used (see for, example, Smith et al., Cancer Res. 54: 3779–3784 (1994); Smith et al., Oncology Res. 6: 211–218 (1994); and Lawrence et al., J. Med. Chem. 44: 594–601 (2001). Cell lines tested included T-24 human bladder carcinoma cells, MCF-7 human breast adenocarcinoma cells, MCF-7/VP cells, which are a subline of MCF-7 cells that is resistant to several anticancer drugs due to overexpression of the transport protein MRP 1, and NCI/ADR, a cell line resistant to many anticancer drugs due to overexpression of the drug transporter P-glycoprotein.
(§3) The indicated cell lines were treated with varying doses of compounds 1–4 for 48 h. Cell survival was then determined using the SRB binding assay (Skehan et al., 1990, J. Natl. Cancer Inst. 82: 1107–1112), and the concentration of compound that inhibited proliferation by 50% was calculated. Values represent the mean ±SD for replicate samples.
(§4) As these transporters are often overexpressed in tumor cells, particularly after the patient has been treated with cytotoxic drugs, the SK inhibiting compounds of the invention are effective therapeutic agents for resistant tumors.
For orientation: In SRB staining, fixed cells bind dye roughly in proportion to their protein.

Data set [6] concerns MCF-7 human breast adenocarcinoma cells. The experiment in a line: Cytotoxicity, SRB binding assay, MCF-7. Type of data set: cell-based. The conditions noted are these: MCF7, 48 h treatment, mean ± SD. Here is the method:
as §2, §3, §4

Data set [7] deals with NCI/ADR cells (P-glycoprotein overexpression). Briefly: Cytotoxicity, SRB binding assay, NCI/ADR. Type of data set: cell-based. The settings on record: Homo sapiens, NCI/ADR-RES, 48 h treatment, mean ± SD. Here is the method:
as §2, §3, §4

In data set [8] the test system is MCF-7/VP cells (MRP 1 overexpression). The experiment in a line: Cytotoxicity, SRB binding assay, MCF-7/VP. The settings on record: Homo sapiens, MCF7-VP, 48 h treatment, mean ± SD. The format is cell-based. Here is the method:
as §2, §3, §4

Data set [9] deals with mouse JC mammary adenocarcinoma cells. Briefly: Antitumor activity in syngeneic tumor model. Type of data set: in vivo, Balb/c mice. The settings on record: 75 mg/kg intraperitoneally on days 1, 5, 9 and 15. The method, then:
These cells express elevated levels of SK activity relative to non-transformed cells, as well as the multidrug resistance phenotype due to P-glycoprotein activity (data not shown). Balb/c mice, 6–8 weeks old, were injected subcutaneously with […] suspended in PBS. […] The insert indicates the body weight of the animals during this experiment.

Setting [10] is: 5 μg/ml of compound (corresponds to 10–25 μM), 1 mM ATP.

Structures are written as SMILES. Where a name gives a salt, the structure may show the parent alone. Read-outs that look alike come from different tables or passages of the source.

T1 sequence (Q9NYA1 whole entry): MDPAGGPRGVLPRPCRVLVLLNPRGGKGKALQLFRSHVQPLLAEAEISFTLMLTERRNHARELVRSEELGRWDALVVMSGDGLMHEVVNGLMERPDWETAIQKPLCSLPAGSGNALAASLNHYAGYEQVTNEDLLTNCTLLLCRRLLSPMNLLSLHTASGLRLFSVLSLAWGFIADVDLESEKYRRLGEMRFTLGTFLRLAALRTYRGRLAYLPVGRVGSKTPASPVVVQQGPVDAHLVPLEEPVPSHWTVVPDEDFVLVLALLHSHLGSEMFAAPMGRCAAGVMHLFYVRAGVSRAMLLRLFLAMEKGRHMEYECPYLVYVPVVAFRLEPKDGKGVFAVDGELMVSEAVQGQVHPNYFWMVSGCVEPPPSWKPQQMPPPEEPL
Chain of ERK2 (P28482 whole entry, canonical isoform): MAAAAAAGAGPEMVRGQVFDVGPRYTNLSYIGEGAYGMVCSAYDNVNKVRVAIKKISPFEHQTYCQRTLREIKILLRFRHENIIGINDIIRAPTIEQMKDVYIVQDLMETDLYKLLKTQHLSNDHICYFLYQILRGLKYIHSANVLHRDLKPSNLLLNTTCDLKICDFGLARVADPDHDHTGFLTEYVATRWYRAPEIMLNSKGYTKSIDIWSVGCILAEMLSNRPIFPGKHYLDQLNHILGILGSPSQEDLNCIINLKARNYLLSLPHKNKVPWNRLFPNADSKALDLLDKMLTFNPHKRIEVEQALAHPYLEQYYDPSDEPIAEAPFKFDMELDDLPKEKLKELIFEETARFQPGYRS

Take `O=S(=O)(c1ccc(O)cc1)c1ccc(O)c(C23CC4CC(CC(C4)C2)C3)c1` [Compound 7, 2-(1-adamantyl)-4-[(4-oxidophenyl)sulfonyl]benzenolate disodium salt]: the inhibition at 5 µg/mL in [1] (setting [10]) was determined as 91%.

Turning to `Oc1ccc(Nc2nc(-c3ccc(Cl)cc3)cs2)cc1` [Compound 3, 4-[4-(4-Chloro-phenyl)-thiazol-2-ylamino]-phenol], the inhibition at 5 µg/mL in data set [1] (setting [10]) was 99%. In data set [2], the “activity toward ERK2 (in words)” value was “no inhibition was seen”. The IC50 in data set [2] is over 60 µM; in data set [3], over 60 µM; in data set [4], over 60 µM; in [5], 4.6 ± 1.6 µM; in data set [6] it was 1.2 ± 1.3 µM; in data set [7], 1.3 ± 1.1 µM. The IC50 in data set [8] worked out at 0.9 ± 1.8 µM. In data set [3], the “activity toward PI3K (in words)” value is given as “no inhibition was seen”. The “inhibition of PKCα (in words)” value in [4] is “no inhibition was seen”.

For the compound `O=C(N/N=C/c1c(O)ccc2ccccc12)c1cc(-c2ccc3ccccc3c2)n[nH]1` [Compound 2, 5-Naphthalen-2-yl-2H-pyrazole-3-carboxylic acid (2-hydroxy-naphthalen-1-ylmethylene)-hydrazide], the IC50 in data set [1] was 1.2 ± 0.3 µM; in data set [2], 11 ± 1 µM; in data set [3] it was over 60 µM; in data set [4], over 60 µM; in data set [5], 1.1 ± 1.2 µM; in data set [6], 0.4 µM. Moreover, the IC50 in [7] amounted to 0.8 ± 1.3 µM; in [8], 2.9 ± 2 µM. The inhibition at 5 µg/mL in data set [1] was determined as 85%. Moreover, the “fold less potent toward ERK2 than SK” value in data set [2] (ERK2 versus SK) was found to be 10 fold.

Take `N#C/C(=C\c1ccc(O)c(O)c1)c1nc(-c2ccc3c(c2)OCO3)cs1` [Compound 9, 2-(4-Benzo[1,3]dioxol-5-yl-thiazol-2-yl)-3-(3,4-dihydroxy-phenyl)-acrylonitrile]: in [1] (setting [10]), the inhibition at 5 µg/mL was 94%.

Consider `O=C(/C=C(O)/C(O)=C/C(=O)c1ccccc1)c1ccccc1` [Compound 11, 3,4 -Dihydroxy-1,6-diphenyl-hexa-2,4-diene-1,6-dione], for which, in data set [1] (setting [10]), the inhibition at 5 µg/mL came to 98%.

As for `O=C1/C(=C/c2ccc(O)c(O)c2)Oc2ccccc21` [Compound 5, 2-(3,4-Dihydroxy-benzylidene)-benzofuran-3-one], in data set [2], the “activity toward ERK2 (in words)” value was “weak activity”. Moreover, the IC50 was 80 ± 4 µM in data set [2] and over 60 µM in [4]. Moreover, in data set [3], the “activity toward PI3K (in words)” value is “moderate activity”. For the same compound, the “difference in body weights versus control group” value in [9] was “No significant difference”. Besides, the “tumor growth decreased versus control animals” value in data set [9] (day 18, volume relative to day 1) is over 50%.

For the compound `Cc1cc2nc3s/c(=C\c4cc(I)cc(I)c4O)c(=O)n3c2cc1C` [Compound 8, 2-(2-Hydroxy-3,5-diiodo-benzylidene)-6,7-dimethyl-benzo[4,5] imidazo [2,1-b] thiazol-3-one], in [1] (setting [10]), the inhibition at 5 µg/mL was determined as 98%.

Consider `O=C1/C(=C/c2ccc(O)c(O)c2)Sc2ccccc21` [Compound 4, 2-(3,4-Dihydroxy-benzylidene)-benzo [b] thiophen-3-one], for which the inhibition at 5 µg/mL in [1] (setting [10]) was 89%. In addition, the IC50 in data set [1] was 0.6 ± 0.1 µM; in data set [2], 40 ± 5 µM; in data set [3] it was 7 ± 2 µM; in data set [4] it was over 60 µM; in data set [5], 7.8 ± 2 µM; in data set [6], 1 ± 1.7 µM. The IC50 is 1.2 ± 2.4 µM in [7] and 1.8 ± 1.1 µM in data set [8]. The “activity toward ERK2 (in words)” value in data set [2] was “weak activity”. Moreover, the “activity toward PI3K (in words)” value in data set [3] is “moderate activity”.

Take `CCCCCCCCCCCCC/C=C/[C@@H](O)[C@H](CO)N(C)C` [dimethylsphingosine, reference compound]: the “inhibition of SK activity by positive control” value in data set [1] (at concentrations above 25 μM) is “completely inhibited”.

In the case of `COc1ccc(N2C(=O)/C(=C\c3ccc(O)cc3O)SC2=S)cc1` [Compound 1, 5-(2,4-Dihydroxy-benzylidene)-3-(4-methoxy-phenyl)-2-thioxo-thiazolidin-4-one], the inhibition at 5 µg/mL in data set [1] (setting [10]) worked out at 99%. Moreover, the IC50 in [1] is 2.5 ± 0.7 µM; in [2], 26 ± 2 µM; in data set [3], 42 ± 10 µM; in [4] it was over 60 µM; in data set [5] it was 5.8 ± 1.5 µM; in [6] it was 6.8 ± 1.5 µM. Moreover, the IC50 in [7] was 6.2 ± 1.5 µM; in data set [8], 24.6 ± 1.9 µM.

As to `CCc1cc2c(s1)[S][Zn]1([N]=C2)[N]=Cc2cc(CC)sc2[S]1` [Compound 12], the inhibition at 5 µg/mL in data set [1] amounted to 87%.

In the case of `CCOc1ccc2c(c1)NC(C)(C)c1ss/c(=N/c3ccc(O)cc3)c1-2` [Compound 10, 4-(7-Ethoxy-4,4-dimethyl-4,5-dihydro-2,3-dithia-5-aza-cyclopenta [α]naphthalen-1-ylideneamino)-phenol], the inhibition at 5 µg/mL in data set [1] (setting [10]) was 81%.

Turning to `COc1ccc(-n2c(SCC(=O)Nc3nc4ccccc4s3)nc(O)cc2=O)cc1` [Compound 6, N-Benzothiazol-2-yl-2-[4-hydroxy-1-(4-methoxy-phenyl)-6-oxo-1,6-dihydro-pyrimidin-2-ylsulfanyl]-acetamide], the inhibition at 5 µg/mL in data set [1] (setting [10]) stood at 91%.
